Consider eight molecules from patent US10479777B2, “Herbicidal azines” (BASF SE, priority 2013, dated 2019).

Common to all, as to assay type: in vivo
Assay [1] has as its system Amaranthus retroflexus. In words: greenhouse test, pre-emergence treatment. To be noted: scale from 0 to 100. The source says:
(§1) The culture containers used were plastic flowerpots containing loamy sand with approximately 3.0% of humus as the substrate. The seeds of the test plants were sown separately for each species.
(§2) For the pre-emergence treatment, the active ingredients, which had been suspended or emulsified in water, were applied directly after sowing by means of finely distributing nozzles. The containers were irrigated gently to promote germination and growth and subsequently covered with transparent plastic hoods until the plants had rooted. This cover caused uniform germination of the test plants, unless this had been impaired by the active ingredients. For the post-emergence treatment, the test plants were first grown to a height of 3 to 15 cm, depending on the plant habit, and only then treated with the active ingredients which had been suspended or emulsified in water. For this purpose, the test plants were either sown directly and grown in the same containers, or they were first grown separately as seedlings and transplanted into the test containers a few days prior to treatment.
(§3) Depending on the species, the plants were kept at 10-25° C. or 20-35° C., respectively. The test period extended over 2 to 4 weeks. During this time, the plants were tended, and their response to the individual treatments was evaluated.
(§4) Evaluation was carried out using a scale from 0 to 100. 100 means no emergence of the plants, or complete destruction of at least the aerial moieties, and 0 means no damage, or normal course of growth. A moderate herbicidal activity is given at values of at least 60, a good herbicidal activity is given at values of at least 70, and a very good herbicidal activity is given at values of at least 85.
(§5) The plants used in the greenhouse experiments were of the following species: […]

In a further assay the test system is Echinocloa crus-galli. The assay is described as follows: greenhouse test, pre-emergence treatment. To be noted: scale from 0 to 100.
From the text: as §1, §2, §3, §4, §5

The test system of assay [2] is Setaria viridis. The assay is described as follows: greenhouse test, pre-emergence treatment. To be noted: scale from 0 to 100.
From the text: as §1, §2, §3, §4, §5

The next assay has as its system Polygonum convolvulus. In words: greenhouse test, pre-emergence treatment. To be noted: 62.5 g/ha, scale from 0 to 100.
From the text: as §1, §2, §3, §4, §5

For assay [3], the system named is Setaria viridis. The assay is described as follows: greenhouse test, post-emergence treatment. To be noted: scale from 0 to 100.
From the text: as §1, §2, §3, §4, §5

Another assay concerns Apera spica-venti. In words: greenhouse test, pre-emergence treatment. To be noted: 62 g/ha, scale from 0 to 100.
From the text: as §1, §2, §3, §4, §5

The test system of the next assay is Abutilon theophrasti. In words: greenhouse test, post-emergence treatment. To be noted: scale from 0 to 100.
From the text: as §1, §2, §3, §4, §5

Assay [4] relates to Amaranthus retroflexus. In words: greenhouse test, post-emergence treatment. To be noted: scale from 0 to 100.
From the text: as §1, §2, §3, §4, §5

The next assay has as its system Setaria faberi. The assay is described as follows: greenhouse test, post-emergence treatment. To be noted: 500 g/ha, scale from 0 to 100.
From the text: as §1, §2, §3, §4, §5

Another assay concerns Poa annua. The assay is described as follows: greenhouse test, pre-emergence treatment. To be noted: scale from 0 to 100.
From the text: as §1, §2, §3, §4, §5

A further assay deals with Stellaria media. In words: greenhouse test, pre-emergence treatment. To be noted: scale from 0 to 100.
From the text: as §1, §2, §3, §4, §5

Regarding `CC(C)(F)c1nc(N)nc(Nc2nc(F)c(F)c(Cl)c2F)n1` [Example 5], the herbicidal activity result with Amaranthus retroflexus [1] (125 g/ha), in the assay with Echinocloa crus-galli (125 g/ha) and in the assay with Setaria viridis [2] (125 g/ha) was “very good (a very good herbicidal activity is given at values of at least 85)” throughout.
Regarding `CC(C)(F)c1nc(N)nc(Nc2c(F)c(F)nc(F)c2F)n1` [Example 1, 6-(1-Fluoro-1-methyl-ethyl)-N4-(2,3,5,6-tetrafluoro-4-pyridyl)-1,3,5-triazine-2,4-diamine], the herbicidal activity result in the assay on Echinocloa crus-galli (62.5 g/ha), in the assay with Polygonum convolvulus and in the assay with Setaria viridis [2] (62.5 g/ha) was “very good (a very good herbicidal activity is given at values of at least 85)” each time.
For `CC(C)Oc1cccnc1Nc1nc(N)nc(C(F)(F)F)n1` [Example 36], the herbicidal activity result in the assay with Setaria viridis [3] (1104 g/ha) is recorded as “very good (a very good herbicidal activity is given at values of at least 85)”.
Regarding `CC(C)(F)c1nc(N)nc(Nc2c(F)cncc2F)n1` [Example 54], the herbicidal activity entry in the assay on Amaranthus retroflexus [1] (62 g/ha) and in the assay with Apera spica-venti was “very good (a very good herbicidal activity is given at values of at least 85)” throughout.
With `CC(c1nc(N)nc(Nc2c(F)c(F)nc(F)c2F)n1)C1CC1` (stereo not shown) [Example 60], the herbicidal activity result in the assay on Abutilon theophrasti (500 g/ha), in the assay with Amaranthus retroflexus [4] (500 g/ha) and with Setaria faberi was “very good (a very good herbicidal activity is given at values of at least 85)” each time.
Regarding `Nc1nc(Nc2c(F)c(F)nc(F)c2F)nc(C2CCCCC2)n1` [Example 59], the herbicidal activity result in the assay on Poa annua (250 g/ha) and in the assay with Stellaria media (250 g/ha) was “very good (a very good herbicidal activity is given at values of at least 85)” in each case.
As to `Cc1cccnc1Nc1nc(N)nc(C(F)(F)F)n1` [Example 34], the herbicidal activity result in the assay on Abutilon theophrasti (2000 g/ha), in the assay with Amaranthus retroflexus [4] (2000 g/ha) and in the assay with Setaria viridis [3] (2000 g/ha) was “very good (a very good herbicidal activity is given at values of at least 85)” in each case.
In the case of `CC(C)(Cl)c1nc(N)nc(Nc2c(F)c(F)nc(F)c2F)n1` [Example 56], the herbicidal activity entry in the assay with Poa annua (125 g/ha) and in the assay with Stellaria media (125 g/ha) was “very good (a very good herbicidal activity is given at values of at least 85)” in each case.
